Measured values: patent publication US5204327A, “Treatment of cerebral edema with ANP pharmaceutical compositions” (Ashi Kasei Kogyo Kabushiki Kaisha, priority 1988, dated 1993)

Legend:
[1] = tested on: vasogenic cerebral edema caused by cold injury; test: Effect on experimental vasogenic cerebral edema (cold injury); format: in vivo, male Crj:CD (SD) rats; settings: rats
Experimental: Using 42 male Crj:CD (SD) rats weighing 300 to 400 g, model animals of vasogenic cerebral edema caused by cold injury were prepared according to the method of Naruse et al. (Brain and Nerve, 33 (6): 569-575 (1981)). (Administration method)
(§1) Peptide (II) obtained in Reference Example 1 was diluted with a physiological saline so that the peptide concentration became 100 μg/3 ml. The solution containing the peptide was continuously administered to eleven rats through the tail vein thereof in an amount of 10 ml per kg of body weight so that the total dose of the administered peptide became 100 μg per kg of body weight, to thereby obtain a peptide (II)-administeredgroup.
Peptide (III) was administered to eight rats in the same manner as described above except that peptide (III) was used instead of peptide (II), to thereby obtain a peptide (III)-administered group.
As a control (solvent), 3 ml per kg of body weight of the physiological saline was administered to eleven rats in substantially the same manner as mentioned above, to thereby obtain a physiological saline-administered group.
As a control for the peptide, an aqueous 10% w/v glycerol solution containing 5% w/v fructose and 0.9% w/v sodium chloride was administered to twelve rats so that the total volume of the administered solution became 10 ml per kg of body weight, to thereby obtain a glycerol-administered group.
The administration of each of the peptide (II) solution, peptide (III) solution and physiological saline was started one hour before the making of cold injury and completed in 90 minutes. On the other hand, the administration of the glycerol solution was started 23 hours after the making of cold injury and completed in 30 minutes in accordance with the ordinary clinical method, so that the total volume of the administered glycerol solution became 10 ml/kg of body weight.
24 hours after the rats had been subjected to cold injury, rats were sacrificed under ether anesthesia. […]
The water content of each of the hemispheres was measured in substantially the same manner as in Example 1. […]

[2] = tested on: vasogenic cerebral edema caused by cold injury; test: Effect on experimental vasogenic cerebral edema (investigation of administration time); format: in vivo, male Crj:CD (SD) rats; settings: for Water content of injured cerebral hemisphere (the mean ± standard error): peptide 100 μg/kg, glycerol solution 10 ml/kg, 24 hours after injury
Experimental: Using 212 male Crj:CD (SD) rats weighing 300 to 400 g, model animals of vasogenic cerebral edema caused by cold injury were prepared according to the method of Naruse et al. (Brain and Nerve, 33 (6): 569-575 (1981).
as §1, with “to a predetermined number of” for “to eleven”, “of 3” for “of 10”, “weight in 90 min” for “weight”, “body weight. Thus, there were obtained six” for “body weight, to thereby obtain a”, “peptide (II)-administered groups.” for “peptide (II)-administeredgroup.”
As a control (solvent), 3 ml per kg of body, weight of the physiological saline was administered to a predetermined number of rats in substantially the same manner as mentioned above, to thereby obtain six physiological saline-administered groups.
As a control for the peptide, an aqueous 10% w/v glycerol solution containing 5% w/v fructose and 0.9% w/v sodium chloride was administered to a predetermined number of rats in substantially the same manner as mentioned above so that the total volume of the administered solution became 10 ml per kg of body weight, to thereby obtain six glycerol-administered groups.
24 hours after the rats were subjected to injury, rats were exsanguinated under ether anesthesia to kill them. Then, cerebra were extracted from the killed rats and each of the cerebra was individually divided into two cerebral hemispheres, namely, a hemisphere having ischemic part and a hemisphere having no ischemic part. The water content of each of the hemispheres was measured in substantially the same manner as in Example 1. In Table 3, the mean and the standard error of the water content of a brain tissue are shown together with the number of rats (n) subjected to experiment in each group.

[3] = tested on: ischemic cerebral edema caused by occlusion of middle cerebral artery; test: Effect on experimental ischemic cerebral edema (MCA occlusion, Tamura model); format: in vivo, male Wistar rats; settings: rats
Experimental: Using 41 male Wistar rats weighing 250 to 350 g, model animals of ischemic cerebral edema caused by occlusion of middle cerebral artery (hereinafter referred to as "MCA") were prepared according to the method of Tamura et al. (Journal of Cerebral Blood Flow and Metabolism, 1, 53-69 (1981)).
as §1, with “μg/10” for “μg/3”, “weight in 20 min” for “weight”, “weight.” for “weight, to thereby obtain a peptide (II)-administeredgroup.”
The administration was conducted 6 times according to the following program. The first administration was conducted 30 minutes after the occlusion of MCA. The second administration was conducted in the morning of the next day of the first administration (2nd day). The third administration was conducted after 6 hours from the second administration. The fourth administration was conducted in the morning of the next day of the third administration (3rd day). […]
After one hour from the sixth administration, that is, 3 days after the rats had been subjected to occlusion of MCA, the rats were sacrificed. […] The water content of each of the hemispheres was measured.
The water content of a brain tissue was calculated by the following formula: [formula] wherein: W1 : weight of the cerebral hemisphere (wet basis)
W2 weight of the cerebral hemisphere (dry basis), which is measured after drying the wet cerebral hemisphere at 95° to 100° C. for 3 days.
The water contents calculated were statistically analyzed by the T-test to determine whether or not there is a significant difference between the water content of each of the groups to which peptide (II), peptide (III) and glycerol were individually administered and the water content of the control group to which physiological saline was administered. […]

[4] = 24 hours after cold injury, peptide 100 μg/kg tail vein started one hour before injury, 90 min, glycerol solution 10 ml/kg started 23 hours after injury
[5] = 3 days after MCA occlusion, peptide 100 μg/kg (glycerol 1 g/kg) tail vein, 6 administrations

OCC(O)CO [Glycerol, glycerol]
Water content of brain tissue (the mean ± standard error), injured cerebral hemisphere [1, 4]: 80.65 ± 0.23 | Water content of brain tissue (the mean ± standard error), not injured cerebral hemisphere [1, 4]: 79.62 ± 0.19 | increase in water content of the injured cerebral hemisphere, compared to physiological saline-administered group ([1]; cold injury): not so markedly inhibited | increase in water content of a cerebral hemisphere, compared to physiological saline-administered groups ([2]; administered just after making the cold injury): significantly inhibited | Water content of injured cerebral hemisphere (the mean ± standard error) ([2]; administration 3 hours after the making of cold injury): 81.08 ± 0.20 | Water content of injured cerebral hemisphere (the mean ± standard error) ([2]; administration 6 hours after the making of cold injury): 81.24 ± 0.19 | Water content of injured cerebral hemisphere (the mean ± standard error) ([2]; administration 22 hours after the making of cold injury): 81.05 ± 0.17 | Water content of injured cerebral hemisphere (the mean ± standard error) ([2]; administration during the making of cold injury): 80.79 ± 0.10 | Water content of injured cerebral hemisphere (the mean ± standard error) ([2]; administration just after the making of cold injury): 80.77 ± 0.14 | Water content of injured cerebral hemisphere (the mean ± standard error) ([2]; administration just before the making of cold injury): 81.22 ± 0.20 | increase in water content of the injured cerebral hemisphere, compared to physiological saline-administered groups ([2]; remaining administration times (all except just after the cold injury)): not significantly inhibited | Water content of brain tissue (the mean ± standard error), hemisphere having ischemic part [3, 5]: 79.34 ± 0.15 | Water content of brain tissue (the mean ± standard error), hemisphere having no ischemic part [3, 5]: 78.51 ± 0.14 | increase in water content of the cerebral hemisphere having ischemic part, compared to physiological saline-administered group ([3]; MCA occlusion, T-test): significantly inhibited
